Test results: US8999295B2, “Technique for drug and gene delivery to the cell cytosol” (Brigham Young University, priority 2009, dated 2015)

Columns and labels:
[1] = Volume expansion ratio on liquid-to-vapor transformation; format: physicochemical; conditions: at body temperature
[2] = cited from earlier work
[3] = at body temperature; cited from earlier work

| expansion ratio (liquid to vapor volume) [1] | Compound | solubility in water [2] | vapor pressure [3] |
| --- | --- | --- | --- |
| approximately 103 | FC(F)(F)C(F)(F)C(F)(F)C(F)(F)C(F)(F)F [PFC5, perfluoropentane] |  |  |
|  | O=O [oxygen] | 1.32 mol/m^3 |  |
| ~259 | FC(F)(F)C(F)(F)C(F)(F)C(F)(F)C(F)(F)C(F)(F)F [perfluorohexane] | 2.7×10^−4 mol/m^3 | 0.48 atm |
|  | FC(F)(F)C(F)(F)C(F)(F)F [perfluoropropane] | 0.19 mol/m^3 |  |
